Measurements: paper PMC9364112, “A natural fusion of flavodiiron, rubredoxin, and rubredoxin oxidoreductase domains is a self-sufficient water-forming oxidase of Trichomonas vaginalis” (The Journal of Biological Chemistry, 2022)

Tests used:
Test in all cases: LC-MS quantification of bound flavin
Format in all cases: binding
[1] = target: T1, TvFDPF1 (Trichomonas vaginalis, UniProt A2EP06); conditions: co-purified cofactor
T1 construct: gene TVAG_263800; full length, 871 residues, C-terminal His6 (pET30a, E. coli BL21 Star DE3); 272 kDa by gel filtration
T1 sequence (A2EP06 1-871): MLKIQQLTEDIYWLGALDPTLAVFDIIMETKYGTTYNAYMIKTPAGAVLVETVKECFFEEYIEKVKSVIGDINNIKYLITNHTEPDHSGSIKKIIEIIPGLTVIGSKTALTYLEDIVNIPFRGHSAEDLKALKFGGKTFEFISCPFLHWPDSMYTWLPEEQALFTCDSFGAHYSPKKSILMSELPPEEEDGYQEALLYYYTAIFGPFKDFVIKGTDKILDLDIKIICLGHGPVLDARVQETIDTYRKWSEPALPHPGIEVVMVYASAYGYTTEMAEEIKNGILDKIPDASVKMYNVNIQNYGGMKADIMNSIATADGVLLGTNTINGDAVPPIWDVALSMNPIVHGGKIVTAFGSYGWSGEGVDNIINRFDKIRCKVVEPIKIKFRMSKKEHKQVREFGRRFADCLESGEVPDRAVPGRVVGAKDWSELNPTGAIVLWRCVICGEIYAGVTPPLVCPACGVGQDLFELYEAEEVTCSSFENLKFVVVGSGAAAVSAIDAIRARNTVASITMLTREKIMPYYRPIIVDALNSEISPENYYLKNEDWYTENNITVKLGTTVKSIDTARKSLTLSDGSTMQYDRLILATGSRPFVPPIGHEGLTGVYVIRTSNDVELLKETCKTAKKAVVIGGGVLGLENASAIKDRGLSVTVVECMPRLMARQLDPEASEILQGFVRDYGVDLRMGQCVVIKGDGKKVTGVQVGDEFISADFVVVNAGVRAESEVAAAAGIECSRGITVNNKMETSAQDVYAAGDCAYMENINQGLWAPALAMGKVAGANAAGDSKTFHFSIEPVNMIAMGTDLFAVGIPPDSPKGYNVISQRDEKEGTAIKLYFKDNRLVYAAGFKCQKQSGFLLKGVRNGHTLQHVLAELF
Excerpt: LC-MS quantification of bound flavin on TvFDPF1

[2] = target: T2, TvFDPF3 (holoTvFDPF3) (Trichomonas vaginalis, UniProt A2E972); conditions: co-purified cofactor, NROR domain
T2 construct: gene TVAG_121610; full length, 871 residues, C-terminal His6 (pET30a, E. coli BL21 Star DE3), ~100 kDa on SDS-PAGE; FDP-core head-to-tail dimer; holo preparation with full FAD/FMN
T2 sequence (A2E972 1-871): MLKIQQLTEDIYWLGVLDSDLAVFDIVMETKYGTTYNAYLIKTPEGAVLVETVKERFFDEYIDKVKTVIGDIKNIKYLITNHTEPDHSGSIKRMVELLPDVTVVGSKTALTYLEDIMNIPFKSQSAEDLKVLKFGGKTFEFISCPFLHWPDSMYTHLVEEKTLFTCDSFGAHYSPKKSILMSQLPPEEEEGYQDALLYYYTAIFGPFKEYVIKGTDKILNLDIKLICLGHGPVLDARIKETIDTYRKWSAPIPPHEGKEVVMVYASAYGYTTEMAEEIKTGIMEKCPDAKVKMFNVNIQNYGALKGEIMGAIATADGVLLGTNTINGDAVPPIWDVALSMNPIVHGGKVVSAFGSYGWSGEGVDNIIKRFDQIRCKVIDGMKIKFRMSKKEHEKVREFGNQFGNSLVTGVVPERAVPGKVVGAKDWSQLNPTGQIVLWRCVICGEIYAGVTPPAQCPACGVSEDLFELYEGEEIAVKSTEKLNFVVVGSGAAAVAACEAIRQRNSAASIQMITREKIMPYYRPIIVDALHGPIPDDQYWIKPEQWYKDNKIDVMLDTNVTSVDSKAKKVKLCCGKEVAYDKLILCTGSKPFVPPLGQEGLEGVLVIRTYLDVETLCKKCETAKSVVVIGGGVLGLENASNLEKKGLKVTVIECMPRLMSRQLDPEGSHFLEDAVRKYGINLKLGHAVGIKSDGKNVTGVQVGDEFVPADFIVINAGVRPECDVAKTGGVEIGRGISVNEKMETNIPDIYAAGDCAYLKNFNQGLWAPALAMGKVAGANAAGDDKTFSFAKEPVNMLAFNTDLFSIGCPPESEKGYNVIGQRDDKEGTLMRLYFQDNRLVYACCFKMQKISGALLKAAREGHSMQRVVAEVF
Excerpt: LC-MS quantification of bound flavin on TvFDPF3 (holoTvFDPF3)

[3] = target: T3, TvFDPF2 (Trichomonas vaginalis, UniProt A2EVX8); conditions: co-purified cofactor, poorly occupied
T3 construct: gene TVAG_049830; full length, 871 residues, C-terminal His6 (pET30a, E. coli BL21 Star DE3); aggregation-prone; poor FAD and FMN occupancy
T3 sequence (A2EVX8 1-871): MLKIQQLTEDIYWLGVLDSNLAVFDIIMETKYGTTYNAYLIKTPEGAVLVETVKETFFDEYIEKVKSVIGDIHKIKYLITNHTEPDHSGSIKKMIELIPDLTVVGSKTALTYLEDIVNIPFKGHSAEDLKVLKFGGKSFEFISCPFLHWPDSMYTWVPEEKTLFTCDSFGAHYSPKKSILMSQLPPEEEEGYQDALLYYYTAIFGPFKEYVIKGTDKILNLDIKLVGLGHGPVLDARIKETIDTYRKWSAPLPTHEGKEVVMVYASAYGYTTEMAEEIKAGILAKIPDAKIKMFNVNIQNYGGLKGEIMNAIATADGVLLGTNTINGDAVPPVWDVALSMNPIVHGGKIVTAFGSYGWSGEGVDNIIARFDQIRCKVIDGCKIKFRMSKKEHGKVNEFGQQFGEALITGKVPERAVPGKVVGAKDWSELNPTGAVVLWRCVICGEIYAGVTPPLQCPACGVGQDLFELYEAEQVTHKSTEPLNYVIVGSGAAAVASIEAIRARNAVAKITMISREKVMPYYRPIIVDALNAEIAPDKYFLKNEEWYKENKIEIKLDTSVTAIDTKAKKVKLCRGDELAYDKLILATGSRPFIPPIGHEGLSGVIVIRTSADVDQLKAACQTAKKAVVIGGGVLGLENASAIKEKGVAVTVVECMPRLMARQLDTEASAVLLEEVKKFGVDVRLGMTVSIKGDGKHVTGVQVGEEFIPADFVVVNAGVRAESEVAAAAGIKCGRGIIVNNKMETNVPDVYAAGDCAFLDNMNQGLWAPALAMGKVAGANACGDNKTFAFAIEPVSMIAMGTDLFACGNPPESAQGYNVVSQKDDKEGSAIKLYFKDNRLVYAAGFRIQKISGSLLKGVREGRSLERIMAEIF
Excerpt: LC-MS quantification of bound flavin on TvFDPF2

## Cc1cc2nc3c(=O)[nH]c(=O)nc-3n(C[C@H](O)[C@H](O)[C@H](O)COP(=O)(O)OP(=O)(O)OC[C@H]3O[C@@H](n4cnc5c(N)ncnc54)[C@H](O)[C@@H]3O)c2cc1C [FAD]
[1]
  FAD per protein monomer: 1.02 ± 0.05 mol per mol monomer
[2]
  FAD per protein monomer: 0.94 ± 0.09 mol per mol monomer
[3]
  FAD per protein monomer: 0.32 ± 0.05 mol per mol monomer
